According to ChEMBL document CHEMBL1201862, “PubChem BioAssay data set” (2004):
Active and inactive are the calls of the source.

Key:
[1] = target: T1, Caspase-6 (Homo sapiens, UniProt P55212); assay: human caspase-6 inhibitors, dose response, biochemical, VEID-R110 fluorescence, cherry-pick (AID 720632)
T1 sequence (P55212 whole entry): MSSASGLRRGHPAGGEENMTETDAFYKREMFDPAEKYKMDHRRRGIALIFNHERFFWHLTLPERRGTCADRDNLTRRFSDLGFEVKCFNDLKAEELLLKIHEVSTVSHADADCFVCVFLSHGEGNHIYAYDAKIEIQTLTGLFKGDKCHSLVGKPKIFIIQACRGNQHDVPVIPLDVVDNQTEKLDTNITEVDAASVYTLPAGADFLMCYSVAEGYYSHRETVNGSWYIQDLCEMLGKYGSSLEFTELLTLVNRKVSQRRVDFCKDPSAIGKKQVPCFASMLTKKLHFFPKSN

[2] = cytotoxicity in HPDE-C7 cells, cell-based, fluorescence, HTS (AID 430); type: functional; details: Homo sapiens
[3] = target: T2, Oxysterols receptor LXR-beta (Homo sapiens, UniProt P55055); assay: LXR agonists, Gal4 luciferase reporter, dose response, counter-screen for ssDAF-12 agonist project, cell-based, luminescence, HEK293, S. stercoralis campaign (AID 720737); type: functional; details: read-out: IC50 (the source's name)
T2 sequence (P55055 whole entry): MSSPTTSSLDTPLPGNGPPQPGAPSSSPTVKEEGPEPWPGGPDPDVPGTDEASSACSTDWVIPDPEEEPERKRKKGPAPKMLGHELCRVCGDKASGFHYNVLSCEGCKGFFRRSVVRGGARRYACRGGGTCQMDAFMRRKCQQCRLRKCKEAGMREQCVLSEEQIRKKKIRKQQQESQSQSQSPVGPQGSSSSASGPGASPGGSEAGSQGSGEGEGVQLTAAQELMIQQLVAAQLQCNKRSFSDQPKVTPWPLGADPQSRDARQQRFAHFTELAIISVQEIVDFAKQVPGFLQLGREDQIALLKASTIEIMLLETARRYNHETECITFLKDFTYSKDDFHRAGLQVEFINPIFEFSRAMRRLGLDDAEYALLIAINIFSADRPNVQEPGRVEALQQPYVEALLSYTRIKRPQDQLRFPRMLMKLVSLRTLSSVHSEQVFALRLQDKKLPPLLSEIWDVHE

[4] = cytotoxicity in KRAS-transformed pancreatic duct cells, primary screen, cell-based, fluorescence, HTS (AID 431); type: functional; details: Homo sapiens;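 further: cell line used: HPDE-C7K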
[5] = Luminescence-based cell-based high throughput dose response assay to identify activators of the DAF-12 from the parasite S. stercoralis (ssDAF-12).; type: functional
[6] = target: T2, Oxysterols receptor LXR-beta; type: functional, cell-based
[7] = cells
[8] = inhibitors of intracellular T. cruzi replication, confirmation, NIH3T3 host cells, beta-gal luminescence (AID 2044); type: functional, cell-based;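 further: intracellular parasites grown in NIH/3T3 mouse fibroblasts as host cells; luminescent beta-galactosidase reporter signal from transgenic T. cruzi replicating inside host cells; inhibitors lower the luminescence signal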
[9] = target: Beta-galactosidase (Escherichia coli, UniProt Q8VNN2); assay: beta-galactosidase enzyme inhibitors and activators, dose response, artefact control for CCR6 antagonist project, biochemical, E. coli enzyme, set 3 (AID 504712); type: functional
Sequence of Beta-galactosidase (Q8VNN2 whole entry): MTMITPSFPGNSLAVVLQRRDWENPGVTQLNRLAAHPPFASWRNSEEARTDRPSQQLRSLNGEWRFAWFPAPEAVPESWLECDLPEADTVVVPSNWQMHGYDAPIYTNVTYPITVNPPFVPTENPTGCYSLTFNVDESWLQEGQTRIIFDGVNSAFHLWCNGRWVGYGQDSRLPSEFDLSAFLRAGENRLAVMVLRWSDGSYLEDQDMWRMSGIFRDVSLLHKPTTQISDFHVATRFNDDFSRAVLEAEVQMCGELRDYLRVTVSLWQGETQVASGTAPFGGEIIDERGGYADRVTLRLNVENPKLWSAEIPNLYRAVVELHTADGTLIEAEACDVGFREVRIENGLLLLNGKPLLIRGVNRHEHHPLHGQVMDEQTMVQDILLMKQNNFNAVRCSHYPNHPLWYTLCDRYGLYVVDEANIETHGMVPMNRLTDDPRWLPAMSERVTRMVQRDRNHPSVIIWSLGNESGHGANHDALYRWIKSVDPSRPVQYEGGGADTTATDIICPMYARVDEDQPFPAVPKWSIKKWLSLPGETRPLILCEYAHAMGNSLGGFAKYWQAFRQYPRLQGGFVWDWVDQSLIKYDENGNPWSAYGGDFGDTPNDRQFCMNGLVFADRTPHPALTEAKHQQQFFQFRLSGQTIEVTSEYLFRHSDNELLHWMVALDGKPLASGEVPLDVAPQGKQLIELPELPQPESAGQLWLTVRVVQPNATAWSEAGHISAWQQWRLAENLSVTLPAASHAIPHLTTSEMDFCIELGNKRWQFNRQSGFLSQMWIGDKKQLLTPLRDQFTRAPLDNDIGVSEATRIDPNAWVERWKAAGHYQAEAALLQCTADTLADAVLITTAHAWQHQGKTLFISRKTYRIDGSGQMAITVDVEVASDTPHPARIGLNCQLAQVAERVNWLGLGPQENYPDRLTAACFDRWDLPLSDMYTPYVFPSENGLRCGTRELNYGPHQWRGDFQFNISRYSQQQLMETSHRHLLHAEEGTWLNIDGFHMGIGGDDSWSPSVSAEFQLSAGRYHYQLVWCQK

[10] = cells; remark: listed apart in the source
[11] = cytotoxicity toward NIH3T3 fibroblasts, dose response, counter-screen, cell-based, ATP luminescence, mouse fibroblasts (AID 2010); type: functional;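 further: cells exposed to compound for about 90 hours before reading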
[12] = target: Cyclin-dependent kinase 5/CDK5 activator 1 (Homo sapiens, UniProt Q00535); assay: CDK5/p35 kinase inhibitors, dose response, biochemical, cherry-picked samples, set 2 (AID 504545)
Sequence of Cyclin-dependent kinase 5/CDK5 activator 1 (Q00535 whole entry): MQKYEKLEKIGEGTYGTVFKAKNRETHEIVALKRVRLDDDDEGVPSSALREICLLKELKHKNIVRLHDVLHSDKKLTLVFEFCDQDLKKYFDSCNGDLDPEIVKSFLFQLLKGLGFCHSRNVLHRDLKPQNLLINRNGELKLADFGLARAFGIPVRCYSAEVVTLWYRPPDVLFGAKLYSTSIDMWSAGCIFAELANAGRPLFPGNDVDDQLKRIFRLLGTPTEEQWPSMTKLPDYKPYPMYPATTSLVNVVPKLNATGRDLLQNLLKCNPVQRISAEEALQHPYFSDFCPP
Sequence of Cyclin-dependent kinase 5/CDK5 activator 1 (Q15078 whole entry, further chain): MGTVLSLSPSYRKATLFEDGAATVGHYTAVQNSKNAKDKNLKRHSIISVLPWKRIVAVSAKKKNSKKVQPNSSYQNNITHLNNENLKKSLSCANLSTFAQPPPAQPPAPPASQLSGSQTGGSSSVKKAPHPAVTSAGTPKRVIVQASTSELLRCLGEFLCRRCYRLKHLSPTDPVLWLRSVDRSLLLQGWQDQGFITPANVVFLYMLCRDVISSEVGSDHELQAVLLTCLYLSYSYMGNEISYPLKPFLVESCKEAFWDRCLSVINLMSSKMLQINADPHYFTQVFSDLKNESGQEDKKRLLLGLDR

[13] = target: Prothrombin (Homo sapiens, UniProt P00734); assay: Thrombin 1536 HTS Dose Response Confirmation. [Related pubchem assays: 1046 (Thrombin 1536 HTS; hits were confirmed in this assay)]; type: functional
[14] = target: Disintegrin and metalloproteinase domain-containing protein 17 (Homo sapiens, UniProt P78536); assay: exosite inhibitors of ADAM17, dose response, biochemical (AID 743260)
Sequence of Disintegrin and metalloproteinase domain-containing protein 17 (P78536 whole entry, the tested form may be a part): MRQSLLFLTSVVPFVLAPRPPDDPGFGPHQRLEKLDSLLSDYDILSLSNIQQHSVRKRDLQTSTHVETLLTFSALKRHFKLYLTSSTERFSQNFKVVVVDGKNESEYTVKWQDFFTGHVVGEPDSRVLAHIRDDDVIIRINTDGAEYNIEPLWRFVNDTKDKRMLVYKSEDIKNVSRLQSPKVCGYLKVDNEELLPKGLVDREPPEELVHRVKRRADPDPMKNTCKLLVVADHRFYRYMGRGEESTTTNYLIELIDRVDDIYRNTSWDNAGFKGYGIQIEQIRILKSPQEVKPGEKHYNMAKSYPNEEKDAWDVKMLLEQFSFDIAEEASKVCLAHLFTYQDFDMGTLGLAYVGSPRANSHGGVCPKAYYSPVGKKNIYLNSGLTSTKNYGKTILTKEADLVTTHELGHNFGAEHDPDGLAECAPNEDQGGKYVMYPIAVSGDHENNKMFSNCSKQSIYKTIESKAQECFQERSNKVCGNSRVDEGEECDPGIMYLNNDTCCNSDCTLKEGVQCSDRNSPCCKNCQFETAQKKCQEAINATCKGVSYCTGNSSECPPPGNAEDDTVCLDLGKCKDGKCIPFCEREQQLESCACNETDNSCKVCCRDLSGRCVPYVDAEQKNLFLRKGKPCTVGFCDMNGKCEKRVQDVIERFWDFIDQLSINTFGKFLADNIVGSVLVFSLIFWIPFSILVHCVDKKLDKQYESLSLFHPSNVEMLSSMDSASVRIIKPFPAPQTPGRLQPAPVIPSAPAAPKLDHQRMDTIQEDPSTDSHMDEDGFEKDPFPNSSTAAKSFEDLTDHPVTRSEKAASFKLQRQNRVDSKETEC

[15] = ADAM10 protease inhibitors, dose response, selectivity assay for ADAM17 exosite inhibitor project, biochemical, FRET peptide substrate, recombinant human ADAM10 (AID 743259);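 further: ADAM10 enzyme cleaving a FRET peptide substrate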
[16] = non-specific cell cytotoxicity, dose response, cytotoxicity control for PAX8 inhibitor project, plate reader, dry powder samples (AID 743021); type: functional, cell-based
[17] = target: Melanocortin receptor 4 (Homo sapiens, UniProt P32245); type: functional, cell-based;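 further: Cell-based assay with luminescence read-out, confirmatory dose-response testing for agonist activity of biased ligands at MC4R; human U2OS cells with tagged receptor and beta-arrestin; potency of agonists that increase receptor coupling to beta-arrestin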
Sequence of Melanocortin receptor 4 (P32245 whole entry): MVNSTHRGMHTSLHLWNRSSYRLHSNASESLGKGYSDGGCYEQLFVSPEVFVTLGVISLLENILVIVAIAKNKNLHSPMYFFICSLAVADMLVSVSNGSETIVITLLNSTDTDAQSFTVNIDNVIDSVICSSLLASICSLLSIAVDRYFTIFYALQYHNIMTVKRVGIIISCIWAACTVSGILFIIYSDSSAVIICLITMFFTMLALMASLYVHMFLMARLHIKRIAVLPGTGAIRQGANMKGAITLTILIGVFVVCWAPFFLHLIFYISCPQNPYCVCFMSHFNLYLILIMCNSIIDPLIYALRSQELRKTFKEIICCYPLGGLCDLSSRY

[18] = target: Paired box protein Pax-8 (Homo sapiens, UniProt Q06710); assay: inhibitors of PAX8-driven TPO luciferase reporter, dose response, RMG-I cells, cherry-pick (AID 687027); type: functional, cell-based;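 further: luciferase reporter driven by Pax8 target thyroperoxidase promoter measured by SteadyGlo luminescence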
Sequence of Paired box protein Pax-8 (Q06710 whole entry): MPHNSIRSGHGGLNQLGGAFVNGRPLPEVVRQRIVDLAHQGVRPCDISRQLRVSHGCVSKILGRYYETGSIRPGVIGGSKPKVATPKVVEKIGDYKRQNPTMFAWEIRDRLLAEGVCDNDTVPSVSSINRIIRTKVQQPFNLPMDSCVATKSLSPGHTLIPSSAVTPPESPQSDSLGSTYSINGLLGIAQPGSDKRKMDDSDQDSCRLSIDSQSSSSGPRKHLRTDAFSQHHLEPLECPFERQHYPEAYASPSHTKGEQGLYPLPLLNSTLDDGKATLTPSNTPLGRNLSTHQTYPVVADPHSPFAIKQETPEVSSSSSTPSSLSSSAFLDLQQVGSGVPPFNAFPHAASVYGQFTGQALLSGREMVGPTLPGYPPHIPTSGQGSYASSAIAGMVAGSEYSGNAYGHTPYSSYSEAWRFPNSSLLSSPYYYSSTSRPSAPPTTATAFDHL

[19] = target: T3, DNA repair protein RAD52 homolog (Homo sapiens, UniProt P43351); type: functional, biochemical
T3 sequence (P43351 whole entry): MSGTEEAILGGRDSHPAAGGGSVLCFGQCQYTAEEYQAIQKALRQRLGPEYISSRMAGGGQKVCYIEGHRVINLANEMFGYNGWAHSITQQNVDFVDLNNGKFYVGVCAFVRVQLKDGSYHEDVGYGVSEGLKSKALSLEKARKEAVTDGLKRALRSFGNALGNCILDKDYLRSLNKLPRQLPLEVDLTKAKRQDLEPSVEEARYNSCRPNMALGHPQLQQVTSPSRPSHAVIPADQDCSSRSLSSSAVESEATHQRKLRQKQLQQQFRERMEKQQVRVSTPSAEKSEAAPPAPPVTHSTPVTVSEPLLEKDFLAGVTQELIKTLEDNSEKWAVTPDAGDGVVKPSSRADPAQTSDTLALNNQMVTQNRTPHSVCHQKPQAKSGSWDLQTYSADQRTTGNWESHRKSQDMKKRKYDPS

[20] = cytotoxicity in COV362 ovarian cancer cells, dose response, cytotoxicity control for PAX8 inhibitor project, cell-based, plate reader, dry powder, SA12 (AID 743144); type: functional
[21] = cytotoxicity dependent on PAX8, dose response, cell-based, plate reader, dry powder (AID 743049); type: functional
[22] = cytotoxicity in OV-90 ovarian cancer cells, dose response, PAX8 inhibitor project, cell-based, plate reader, dry powder, SA8 (AID 743149); type: functional
[23] = PAX5 activity inhibitors, dose response, selectivity assay for PAX8 inhibitor project, cell-based, plate reader, dry powder samples (AID 743047); type: functional;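 further: HEK293 cells carrying a Pax5 driven CD19 promoter luciferase reporter; potency of inhibitors that lower reporter luminescence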
[24] = PAX2 cell-based inhibition, dose response, selectivity assay for PAX8 inhibitor project, plate reader, dry powder samples (AID 743048); type: functional;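 further: HEK293 cells carrying a WT1 promoter luciferase reporter driven by expressed Pax2; potency is for inhibition of Pax2 driven reporter signal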
[25] = target: T4, Hexokinase HKDC1 (Homo sapiens, UniProt Q2TB90); assay: HKDC1 hexokinase inhibitors, dose response, biochemical, W721R variant (AID 504729); type: functional
T4 sequence (Q2TB90 whole entry): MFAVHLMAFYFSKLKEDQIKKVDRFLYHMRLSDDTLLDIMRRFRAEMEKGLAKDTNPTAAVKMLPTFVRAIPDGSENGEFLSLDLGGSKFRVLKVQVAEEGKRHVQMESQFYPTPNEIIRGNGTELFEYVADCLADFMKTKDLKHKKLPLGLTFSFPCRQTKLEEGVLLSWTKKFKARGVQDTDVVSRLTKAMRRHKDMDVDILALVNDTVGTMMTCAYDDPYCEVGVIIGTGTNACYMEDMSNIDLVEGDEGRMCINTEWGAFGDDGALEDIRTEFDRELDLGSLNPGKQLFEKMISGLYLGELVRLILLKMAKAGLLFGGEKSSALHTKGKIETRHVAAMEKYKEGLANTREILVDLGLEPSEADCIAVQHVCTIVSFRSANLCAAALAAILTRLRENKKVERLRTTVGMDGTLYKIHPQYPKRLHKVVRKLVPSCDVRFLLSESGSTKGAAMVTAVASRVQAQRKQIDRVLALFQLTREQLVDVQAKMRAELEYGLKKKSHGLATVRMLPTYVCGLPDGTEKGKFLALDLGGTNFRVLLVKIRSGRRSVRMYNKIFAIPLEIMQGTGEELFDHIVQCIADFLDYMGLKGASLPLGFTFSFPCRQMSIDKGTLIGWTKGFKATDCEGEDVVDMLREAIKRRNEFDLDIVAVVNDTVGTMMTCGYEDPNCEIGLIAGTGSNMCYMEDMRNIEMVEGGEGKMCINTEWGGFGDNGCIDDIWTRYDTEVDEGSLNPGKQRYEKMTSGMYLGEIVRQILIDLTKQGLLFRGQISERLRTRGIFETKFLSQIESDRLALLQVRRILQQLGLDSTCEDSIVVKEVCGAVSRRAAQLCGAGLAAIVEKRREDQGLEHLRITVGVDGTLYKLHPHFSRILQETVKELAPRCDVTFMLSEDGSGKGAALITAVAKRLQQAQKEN

[26] = control 3'UTR Renilla luciferase suppression, dose response, counter-screen for Shn3 inhibitor project, cell-based, Clone20-Shn3RL, cherry-picked (AID 624133); type: functional
[27] = insulin promoter down-regulators in MIN6 cells, imaging, high-content screening, mouse beta cells (AID 1628); type: functional
[28] = Shn3 3'UTR reporter inhibitors, dose response, cell-based, Clone20 osteoblasts, firefly luciferase, cherry-picked (AID 624132); type: functional;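 further: firefly luciferase luminescence from reporter carrying the Shn3 3'UTR in osteoblasts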
[29] = HepG2 cell cytotoxicity, dose response, cytotoxicity control for Shn3 inhibitor project, CellTiter-Glo, cherry-picked (AID 624134); type: functional, cell-based
[30] = reduction of Shn3 3'UTR firefly luciferase signal, dose response, Schnurri-3 inhibitor project, cell-based, Clone20 osteoblasts, cherry-pick, set 2 (AID 720490); type: functional;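 further: actives lower the luminescence signal as inhibitors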
[31] = cytotoxicity in MIN6 insulinoma cells, dose response, cytotoxicity control, cell-based, mouse insulinoma (AID 2122); type: functional;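 further: confirmatory high-throughput counterscreen run to flag cytotoxic compounds; mouse MIN-6 beta cells carrying an insulin promoter eGFP reporter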
[32] = SNU-C1 cell viability reduction, dose response, CellTiter-Glo luminescence (AID 1117323); type: functional, cell-based
[33] = cytotoxicity toward HCT116 cells – cell-based, CellTiter-Glo luminescence, IC50, dose response (AID 1117332); type: functional; details: HCT-116
[34] = Concentration-dependent survival of SW480 colon cancer line, luminescence detection with CellTiter-Glo, half-maximal inhibitory concentration (AID 1117338); type: functional
[35] = cytotoxicity toward HT-29 cells – cell-based, CellTiter-Glo luminescence, IC50, dose response (AID 1117330); type: functional
[36] = cytotoxicity toward Colo320 cells – cell-based, CellTiter-Glo luminescence, IC50, dose response (AID 1117334); type: functional; details: COLO 320
[37] = CellTiter-Glo luminescent dose response of DLD-1 viability loss (AID 1117352); type: functional
[38] = RKO cell viability reduction, dose response, CellTiter-Glo luminescence (AID 1117322); type: functional

## COc1ccc(CCN2CC(C(=O)NCCc3ccc(C)cc3)CC2=O)cc1OC (stereo unspecified)
[1]
  AC50: 20.1 µM (active)

## Cc1ccc2nc(-c3ccccc3)cc(O)c2c1
[2]
  EC50: 0.91 µM (active)
[3]
  EC50: > 67.5 µM (inactive)
[4]
  EC50: 1.14 µM (active)
[5]
  IC50: > 67.5 µM (inactive)

## COc1ccccc1-c1nc(-c2ccc(Br)o2)no1
[3]
  EC50: > 67.5 µM (inactive)
[6]
  EC50: > 67.5 µM (inactive)
[5]
  IC50: > 67.5 µM (inactive)
[7]
  EC50: > 67.5 µM (inactive)

## C/C(CC1CC2=C(CC1(C)C)C(C)(C)CCC2)=N\NC(N)=S (stereo unspecified)
[8]
  EC50: < 0.1 µM (active)
[9]
  IC50: > 66.6 µM (inactive)
[10]
  EC50: 0.139 µM (active)
[11]
  EC50: > 60 µM (not active)

## O=C(Cc1ccc(O)cc1)NCCN=C(S)NCc1ccccc1
[12]
  AC50: 27.6 µM (active)

## C#CCOCCOCCOCCNc1nc(N2CCN(C(=O)Cn3cc(CC(C)O)nn3)CC2)nc(N2CCN(C(=O)[C@H](C)n3cc(CCCN=C(N)N)nn3)CC2)n1 (stereo partly specified)
[13]
  IC50: 6.8 µM (active)

## Nc1nc(CN2CCCCC2)cs1
[13]
  IC50: > 50 µM (not active)

## CCOC(=O)c1ccc(NC(=O)C2CCCN(S(=O)(=O)c3ccc(F)cc3)C2)cc1 (stereo unspecified)
[14]
  IC50: > 69.5 µM (inactive)
[15]
  IC50: > 7.72 µM (active)

## CN(C)CCNC(=O)c1cccc(-c2cnc3c(NC=O)cc(-c4cccc(C(F)(F)F)c4)cn23)c1
[16]
  AC50: 54.8 µM (active)
[17]
  EC50: > 89.2 µM (inactive)
[18]
  AC50: 9.07 µM (active)
[19]
  AC50: 2.4 µM (active)

## COc1cccc(C#Cc2ccc([C@H]3[C@@H](C#N)N(C(=O)c4ccccn4)[C@@H]3CO)cc2)c1
[20]
  AC50: 43.7 µM (active)
[21]
  AC50: 47.3 µM (active)
[18]
  AC50: 15 µM (active)
[22]
  AC50: > 70 µM (inactive)
[23]
  AC50: 15.2 µM (active)
[24]
  AC50: 14.1 µM (active)

## COc1ccc2c(=O)c(-c3nc(C)cs3)coc2c1
[6]
  EC50: > 67.5 µM (inactive)
[7]
  EC50: > 67.5 µM (inactive)

## O=Cc1[nH]c2ccccc2c1N(C(=O)CCl)c1ccccc1
[25]
  IC50: 43.4 µM (inactive)

## CCN(CC)c1ccc(NC(=O)CN2C(=O)CSc3ncccc32)c(C)c1
[26]
  AC50: 10.2 µM (active)
[27]
  IC50: 1.33 µM (active)
[28]
  AC50: 1.78 µM (active)
[29]
  AC50: 31.9 µM (active)
[30]
  AC50: 2.17 µM (active)
[31]
  IC50: 0.713 µM (active)

## COc1ccc(C2CC(c3ccccc3)=NN2C(=O)CN2CCN(Cc3ccccc3)CC2)cc1 (stereo unspecified)
[13]
  IC50: > 50 µM (not active)

## CCc1ccc(NC(=O)CO/N=C(\C)c2cc3ccccc3o2)cc1
[14]
  IC50: > 69.5 µM (inactive)
[15]
  IC50: > 69.5 µM (inactive)

## CC(C)=CC1C(C(=O)OCN2C(=O)C3=C(CCCC3)C2=O)C1(C)C (stereo unspecified) [TETRAMETHRIN]
[32]
  IC50: > 20 µM (inactive)
[33]
  IC50: > 20 µM (inactive)
[34]
  IC50: > 20 µM (inactive)
[35]
  IC50: > 20 µM (inactive)
[36]
  IC50: > 20 µM (inactive)
[37]
  IC50: > 20 µM (inactive)
[38]
  IC50: > 20 µM (inactive)

## O=C(Nc1ccc2c(c1)OCCO2)Nc1ccc2c(c1)OCO2
[3]
  EC50: > 67.6 µM (inactive)
[5]
  IC50: > 67.6 µM (inactive)

## CCOC(=O)N1CCN(C(=O)C[C@H]2C[C@@]3(C(=O)OC)C(=C[C@H](C(C)C)O[C@@H]3C3CC3)N(Cc3ccc(Cl)cc3Cl)C2=O)CC1
[14]
  IC50: > 69.5 µM (inactive)
[15]
  IC50: 16.4 µM (inactive)
